From US4046904A, “Novel penicillin, and its preparation and use” (Sumitomo Chemical Company, Limited, priority 1975, dated 1977) come the findings set out here.

Each structure is given as a SMILES string.

For data set [1], the system named is Escherichia coli. The experiment in a line: MIC (Table 3). It is filed as cell-based. The source says: (§1) The minimum inhibitory concentrations obtained with Compound (I) and Compound (C) against the following organisms representing 6 genera are shown in Table 3.
(§2) Note: Compound (I) and Compound (C) were subjected to the test in the form of the sodium salt.

Data set [2] has as its system Klebsiella pneumoniae. The experiment in a line: MIC (Table 3). It is filed as cell-based. Conditions: Klebsiella pneumoniae strain PCI602; sodium salt.
Source text: as §1, §2

Data set [3] concerns Proteus mirabilis. The experiment in a line: MIC (Table 3). It is filed as cell-based.
Source text: as §1, §2

Data set [4] relates to Proteus vulgaris. The experiment in a line: MIC (Table 3). It is filed as cell-based. Particulars: Proteus vulgaris strain HX19; sodium salt.
Source text: as §1, §2

For data set [5], the system named is Pseudomonas aeruginosa. The experiment in a line: MIC (Table 3). It is filed as cell-based. Conditions: Pseudomonas aeruginosa strain 104; sodium salt.
Source text: as §1, §2

In data set [6] the test system is Staphylococcus aureus. The experiment in a line: MIC (Table 3). It is filed as cell-based.
Source text: as §1, §2

Data set [7] can be described thus: Protein-binding rate in human serum (Table 6). It is filed as in vitro ADME. Particulars: for fraction unbound: human, serum, sodium salt.
Source text: The following data are related to the pharmacokinetic profiles of Compound (I) compared with Compound (C).
as §2

The nature of data set [8]: Urinary excretion rate in rats after intramuscular administration (Table 8). It is filed as in vivo, Wistar-HLA strain rats. Particulars: rat, urine, im, 20 mg/kg, male rats, intramuscular 20 mg/kg, sodium salt. The method, then: The urinary excretion rates of Compound (I) and Compound (C) following an intramuscular administration of 20 mg/kg in male Wistar-HLA strain rats are shown in Table 8.
as §2

Data set [9] is described as follows: solubility in pharmaceutical diluents. It is filed as physicochemical. Particulars: e.g. water; relative to said penicillins.

What is called MIC is the smallest concentration in the dilution series that meets the test's criterion for growth inhibition. A word on the fraction unbound: it is the share of the substance not bound to proteins or other matrix. Consider `CC1(C)S[C@@H]2[C@H](NC(=O)[C@H](NC(=O)c3ccnnc3O)c3ccc(O)cc3)C(=O)N2[C@H]1C(=O)O` [Compound (I), 6-[D-2-(3-hydroxypyridazine-4-carbonamido)-2-(p-hydroxyphenyl)acetamido]penicillanic acid], for which the “antibacterial activity relative to Compound (C)” value in data set [1] (Escherichia coli) is “inferior”; in [3] (Proteus mirabilis), “inferior”; in data set [6] (Staphylococcus aureus) it was “superior”. Besides, the MIC in data set [1] (Escherichia coli strain NIHJ, sodium salt) amounted to 6.25 µg/mL; in data set [2] it was 12.5 µg/mL; in data set [3] (Proteus mirabilis strain GN2425, sodium salt), 6.25 µg/mL; in data set [4] it was 0.025 µg/mL; in data set [5], 1.56 µg/mL; in data set [6] (Staphylococcus aureus strain 209P, sodium salt), 0.39 µg/mL. Moreover, the “protein-binding rate relative to Compound (C)” value in data set [7] (human serum) is “lower protein-binding rate”. For the same compound, the fraction unbound is 0.4 in data set [7] (Ultracentrifugation method) and 0.42 in [7] (Ultrafiltration method). For the same compound, the dose excreted at 6 h in [8] (0-6 hr.) stood at 54%. For the same compound, the dose excreted at 24 h in data set [8] (0-24 hr.) amounted to 55%; in [8] (6-24 hr.), 1%. For the same compound, the “solubility in pharmaceutical diluents” value in data set [9] is “higher solubility”.
